Broadly, the IC50 is the concentration that gives 50% inhibition. As a reminder, the AC50 is the concentration at which the activity in the assay is half-maximal.

Activity calls are given as the source filed them. Where only a bound is given, the exact number is not on record here.

Among the data in ChEMBL document CHEMBL1201862, “PubChem BioAssay data set” (2004) are EC50, IC50 and AC50 values, retold here.

Experiment [1] concerns the target Mucolipin-3 (Homo sapiens, UniProt Q8TDD5). Nature of the experiment: Dose response cell-based high-throughput screening assay for agonists of the transient receptor potential channel ML3 (TRPML3). [Related pubchem assays: 1526, 1424, 1448 ]. It is filed as functional.
The target of experiment [2] is Ion channel NompC (Danio rerio, UniProt Q7T1G6). Nature of the experiment: Fluorescence counterscreen assay for TRPML3 agonists: dose response cell-based high-throughput screening assay to identify agonists of the transient receptor potential channel N1 (TRPN1). [Related pubchem assays: 1526, 1424, 1448 ]. It is filed as functional.
In experiment [3] the target is T1, Short transient receptor potential channel 4 (Mus musculus, UniProt Q9QUQ5).
T1 sequence (Q9QUQ5 whole entry): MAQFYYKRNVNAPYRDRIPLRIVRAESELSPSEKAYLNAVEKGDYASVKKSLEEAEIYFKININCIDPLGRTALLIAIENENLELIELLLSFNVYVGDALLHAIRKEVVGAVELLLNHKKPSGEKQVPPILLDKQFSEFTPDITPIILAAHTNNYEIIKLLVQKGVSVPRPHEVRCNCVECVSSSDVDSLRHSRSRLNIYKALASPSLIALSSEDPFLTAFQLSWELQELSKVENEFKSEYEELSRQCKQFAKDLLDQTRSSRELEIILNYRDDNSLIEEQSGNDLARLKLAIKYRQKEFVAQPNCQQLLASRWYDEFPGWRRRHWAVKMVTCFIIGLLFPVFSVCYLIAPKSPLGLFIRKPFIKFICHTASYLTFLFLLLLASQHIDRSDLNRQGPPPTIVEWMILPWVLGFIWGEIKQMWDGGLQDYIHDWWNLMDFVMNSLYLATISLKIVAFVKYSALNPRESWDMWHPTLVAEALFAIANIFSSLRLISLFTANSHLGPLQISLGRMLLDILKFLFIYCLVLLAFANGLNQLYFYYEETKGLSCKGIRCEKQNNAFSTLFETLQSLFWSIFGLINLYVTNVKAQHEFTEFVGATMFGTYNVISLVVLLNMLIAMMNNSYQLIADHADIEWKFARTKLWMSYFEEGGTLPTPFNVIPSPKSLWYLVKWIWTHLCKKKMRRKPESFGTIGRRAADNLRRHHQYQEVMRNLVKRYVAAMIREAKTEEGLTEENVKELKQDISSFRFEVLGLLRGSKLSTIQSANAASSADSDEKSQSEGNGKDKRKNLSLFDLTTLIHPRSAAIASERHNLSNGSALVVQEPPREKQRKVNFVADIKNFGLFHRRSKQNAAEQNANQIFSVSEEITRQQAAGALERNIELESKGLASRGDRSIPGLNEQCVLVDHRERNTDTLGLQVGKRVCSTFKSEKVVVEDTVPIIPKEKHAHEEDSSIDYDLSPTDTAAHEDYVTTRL
Nature of the experiment: mouse TRPC4 channel activators, dose response, cell-based, HEK293 TRPC4/mu-opioid, Fluo-4 calcium (AID 434937). In kind it is functional.

The target of experiment [4] is T2, High affinity choline transporter 1 (Homo sapiens, UniProt Q9GZV3).
T2 sequence (Q9GZV3 whole entry): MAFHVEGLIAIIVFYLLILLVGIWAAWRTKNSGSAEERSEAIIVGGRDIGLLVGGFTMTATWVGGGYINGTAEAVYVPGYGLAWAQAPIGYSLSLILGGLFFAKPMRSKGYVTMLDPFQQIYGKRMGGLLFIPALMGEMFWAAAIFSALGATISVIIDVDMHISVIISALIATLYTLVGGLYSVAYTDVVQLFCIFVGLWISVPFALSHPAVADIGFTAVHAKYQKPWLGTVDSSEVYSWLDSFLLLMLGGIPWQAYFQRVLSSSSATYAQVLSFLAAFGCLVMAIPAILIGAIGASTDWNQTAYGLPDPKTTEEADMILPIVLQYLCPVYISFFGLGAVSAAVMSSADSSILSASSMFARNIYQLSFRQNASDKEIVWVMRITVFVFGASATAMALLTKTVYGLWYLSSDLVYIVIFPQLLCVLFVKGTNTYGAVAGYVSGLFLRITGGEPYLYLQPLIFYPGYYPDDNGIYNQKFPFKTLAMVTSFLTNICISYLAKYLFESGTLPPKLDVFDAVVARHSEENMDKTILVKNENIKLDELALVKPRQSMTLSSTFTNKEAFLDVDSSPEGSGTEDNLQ
Briefly: CHT inhibitors, dose response, cell-based, 5-point CRC, membrane potential dye (AID 504840). It is filed as functional.

The target in experiment [5] is T3, Corticotropin-releasing factor receptor 2/Corticotropin-releasing factor-binding protein (Homo sapiens, UniProt P24387+Q13324).
T3 sequence (Q13324 whole entry): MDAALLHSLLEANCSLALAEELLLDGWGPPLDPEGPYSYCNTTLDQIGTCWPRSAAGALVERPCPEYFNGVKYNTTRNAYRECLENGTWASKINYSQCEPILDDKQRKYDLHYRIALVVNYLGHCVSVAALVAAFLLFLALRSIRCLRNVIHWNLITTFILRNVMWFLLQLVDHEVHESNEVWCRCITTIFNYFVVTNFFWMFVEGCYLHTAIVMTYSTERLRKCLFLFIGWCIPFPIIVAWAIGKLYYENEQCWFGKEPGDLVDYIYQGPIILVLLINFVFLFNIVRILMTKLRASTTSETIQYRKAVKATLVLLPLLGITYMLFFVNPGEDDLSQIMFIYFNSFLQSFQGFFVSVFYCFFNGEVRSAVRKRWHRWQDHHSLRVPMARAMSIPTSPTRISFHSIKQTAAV
T3 sequence (P24387 whole entry): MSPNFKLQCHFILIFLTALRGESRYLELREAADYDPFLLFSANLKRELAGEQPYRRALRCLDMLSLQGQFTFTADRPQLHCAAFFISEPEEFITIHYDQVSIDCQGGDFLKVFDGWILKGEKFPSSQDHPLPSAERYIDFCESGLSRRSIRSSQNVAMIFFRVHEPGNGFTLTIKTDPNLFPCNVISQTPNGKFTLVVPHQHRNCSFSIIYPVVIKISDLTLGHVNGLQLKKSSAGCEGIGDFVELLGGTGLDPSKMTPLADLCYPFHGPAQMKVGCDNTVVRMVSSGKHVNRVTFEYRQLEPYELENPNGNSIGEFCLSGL
Nature of the experiment: activators of CRF receptor 2 with binding protein – uHTS hits, confirmation (AID 602473). It is filed as functional. The note with it: read-out: EC50_Mean.

A short description of experiment [6]: HIV-1 Env-mediated cell fusion inhibitors, dose response, CCR5-tropic Env (AID 2279). In kind it is functional.
The nature of experiment [7]: growth suppression of PTEN-null colon cells, dose response, cell-based, HCT116 PTEN knockout (AID 1047).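 Note: HCT116 colon tumor cells with PTEN knocked out; cells exposed to compound for 60 hours before readout; potency for loss of cell viability measured by luminescence.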 In kind it is functional.
Experiment [8] in a line: growth suppression of beta-catenin-knockout colon cells, dose response, cell-based, HCT116, human colon tumor (AID 1045).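 Note: HCT116 colon tumor cells with beta catenin knocked out; cells exposed to compound for 60 hours.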 In kind it is functional.
Experiment [9] in a line: Luminescence Cell-Based Dose Retest to Confirm Inhibitors of Cancer Stem Cells. [Related pubchem assays (depositor defined):AID2717, AID2721]. It is filed as functional. The note with it: Homo sapiens.
The target in experiment [10] is Sphingosine 1-phosphate receptor 2 (Homo sapiens, UniProt O95136). Nature of the experiment: Dose Response Cell Based Assay for Agonists of the S1P2 Receptor of Purchased Analogues. [Related pubchem assays: 729, 843, 854, 736 ]. In kind it is functional.
For experiment [11], the target named is Epstein-Barr nuclear antigen 1 (Epstein-Barr virus (strain B95-8) (HHV-4) (Human herpesvirus 4), UniProt P03211). Nature of the experiment: EBNA-1 inhibitors, dose response, biochemical, fluorescence polarization, 1536-well (AID 2381).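 Note: fluorescence polarization of a Cy5 DNA probe bound by EBNA-1 protein.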 The arrangement: species or system human gammaherpesvirus 4. For orientation: Polarisation of emitted light reports the rotation of a fluorescent probe.

Experiment [12] concerns the target Lytic switch protein BZLF1 (Epstein-Barr virus (strain B95-8) (HHV-4) (Human herpesvirus 4), UniProt P03206). Nature of the experiment: EBV ZTA inhibitors, dose response, counter-screen for EBNA-1 inhibitor project, biochemical, fluorescence polarization, Epstein-Barr virus, 1536-well (AID 2377).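 Note: fluorescence polarization of Cy5-labelled ZRE DNA probe bound by purified Zta.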 The arrangement: species or system human gammaherpesvirus 4. Background: A counterscreen serves to expose hits that act by an unwanted route or on another target.

Experiment [13] concerns the target T4, Neuropeptide Y receptor type 1 (Homo sapiens, UniProt P25929).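 Note: HEK293 cells with a CNG channel challenged with NPY then isoproterenol; potency as antagonist that reverses NPY suppression of cAMP signal.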
T4 sequence (P25929 whole entry): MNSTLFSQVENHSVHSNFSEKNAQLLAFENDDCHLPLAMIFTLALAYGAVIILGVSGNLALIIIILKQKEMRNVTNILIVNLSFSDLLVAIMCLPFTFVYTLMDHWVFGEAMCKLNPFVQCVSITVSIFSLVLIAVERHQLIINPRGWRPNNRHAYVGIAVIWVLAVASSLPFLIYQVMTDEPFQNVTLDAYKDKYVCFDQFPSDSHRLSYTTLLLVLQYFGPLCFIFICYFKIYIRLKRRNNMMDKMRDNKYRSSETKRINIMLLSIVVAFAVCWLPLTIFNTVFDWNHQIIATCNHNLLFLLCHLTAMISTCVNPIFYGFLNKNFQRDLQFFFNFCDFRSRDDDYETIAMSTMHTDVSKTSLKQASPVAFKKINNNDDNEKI
In kind it is functional.

The target in experiment [14] is T5, Neuropeptide Y receptor type 2 (Homo sapiens, UniProt P49146).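 Note: HEK293 cells expressing the receptor and a CNG channel; stimulus was NPY near EC95 followed by isoproterenol to raise cAMP; antagonist potency measured as restoring cAMP signal that NPY suppresses.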
T5 sequence (P49146 whole entry): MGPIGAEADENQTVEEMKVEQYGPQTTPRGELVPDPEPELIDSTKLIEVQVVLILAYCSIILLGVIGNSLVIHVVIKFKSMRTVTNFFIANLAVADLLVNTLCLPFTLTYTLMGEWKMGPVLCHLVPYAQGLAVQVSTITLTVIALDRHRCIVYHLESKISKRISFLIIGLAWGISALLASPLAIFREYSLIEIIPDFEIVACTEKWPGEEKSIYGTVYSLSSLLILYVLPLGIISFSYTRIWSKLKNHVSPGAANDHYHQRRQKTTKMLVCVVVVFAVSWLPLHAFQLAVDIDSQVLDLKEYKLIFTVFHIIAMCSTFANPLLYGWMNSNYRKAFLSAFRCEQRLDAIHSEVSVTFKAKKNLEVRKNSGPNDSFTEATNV
It is filed as functional, cell-based.

The target in experiment [15] is T6, Estrogen receptor (Homo sapiens, UniProt P03372).
T6 sequence (P03372 whole entry): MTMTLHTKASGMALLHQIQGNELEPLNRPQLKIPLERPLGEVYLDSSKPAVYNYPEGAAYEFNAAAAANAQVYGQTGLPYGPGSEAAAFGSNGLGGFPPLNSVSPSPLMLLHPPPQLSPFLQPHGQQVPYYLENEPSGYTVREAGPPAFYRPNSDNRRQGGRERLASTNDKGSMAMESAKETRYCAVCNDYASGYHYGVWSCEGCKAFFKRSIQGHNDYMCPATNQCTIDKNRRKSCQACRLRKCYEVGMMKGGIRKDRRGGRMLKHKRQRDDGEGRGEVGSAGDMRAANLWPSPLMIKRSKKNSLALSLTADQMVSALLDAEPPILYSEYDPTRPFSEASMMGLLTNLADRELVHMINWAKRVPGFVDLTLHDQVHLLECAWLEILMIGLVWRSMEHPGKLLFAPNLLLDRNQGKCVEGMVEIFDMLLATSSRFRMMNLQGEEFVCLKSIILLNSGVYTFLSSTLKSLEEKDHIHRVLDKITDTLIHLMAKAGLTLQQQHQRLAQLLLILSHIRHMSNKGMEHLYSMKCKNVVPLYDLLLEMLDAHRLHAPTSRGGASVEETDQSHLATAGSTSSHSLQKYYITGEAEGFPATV
Nature of the experiment: potentiators of ERα–SRC-1 coactivator binding, dose response, biochemical, TR-FRET, ERα LBD (AID 737). On the technique in general: Time-resolved FRET reads energy transfer from a long-lived donor to a nearby acceptor.

Experiment [16] concerns the target T7, Bcl-2-like protein 10 (Homo sapiens, UniProt Q9HD36).
T7 sequence (Q9HD36 whole entry): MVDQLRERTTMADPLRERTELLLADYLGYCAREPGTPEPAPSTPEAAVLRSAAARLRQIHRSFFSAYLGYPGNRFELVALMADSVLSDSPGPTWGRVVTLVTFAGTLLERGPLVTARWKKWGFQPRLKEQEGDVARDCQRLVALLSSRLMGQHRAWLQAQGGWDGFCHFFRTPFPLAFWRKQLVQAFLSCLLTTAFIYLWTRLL
Briefly: Biochemical TR3 FP assay of Bcl-B inhibitor potency, EC50 (AID 1243). In kind it is functional.

Experiment [17] has as its target Peroxisome proliferator-activated receptor gamma/Nuclear receptor coactivator 2 (Homo sapiens, UniProt P37231). In kind it is functional.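 Note: agonist potency for raising coactivator recruitment to the receptor.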
Experiment [18] has as its target Peroxisome proliferator-activated receptor gamma/Nuclear receptor coactivator 1 (Homo sapiens, UniProt P37231). In kind it is functional.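 Note: agonist potency as compounds enhance coactivator SRC-1 recruitment to PPARgamma.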
Experiment [19] has as its target Peroxisome proliferator-activated receptor gamma/Nuclear receptor coactivator 3 (Homo sapiens, UniProt P37231). It is filed as functional.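 Note: agonist potency for raising coactivator recruitment to the receptor.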
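Throughout, for AC50: cells exposed to compound for roughly 70 hours or longer before luminescence read.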

Chain of Sphingosine 1-phosphate receptor 2 (O95136 whole entry): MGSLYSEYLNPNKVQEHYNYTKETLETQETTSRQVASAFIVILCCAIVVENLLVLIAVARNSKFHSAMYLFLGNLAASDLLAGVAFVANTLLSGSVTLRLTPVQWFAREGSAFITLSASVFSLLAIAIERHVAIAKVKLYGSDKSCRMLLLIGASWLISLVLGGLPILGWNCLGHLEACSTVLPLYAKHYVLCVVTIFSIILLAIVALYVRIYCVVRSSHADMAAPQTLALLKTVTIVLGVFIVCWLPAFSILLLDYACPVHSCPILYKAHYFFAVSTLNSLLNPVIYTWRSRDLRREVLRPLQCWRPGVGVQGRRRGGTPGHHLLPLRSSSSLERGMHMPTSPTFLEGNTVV
Chain of Ion channel NompC (Q7T1G6 whole entry): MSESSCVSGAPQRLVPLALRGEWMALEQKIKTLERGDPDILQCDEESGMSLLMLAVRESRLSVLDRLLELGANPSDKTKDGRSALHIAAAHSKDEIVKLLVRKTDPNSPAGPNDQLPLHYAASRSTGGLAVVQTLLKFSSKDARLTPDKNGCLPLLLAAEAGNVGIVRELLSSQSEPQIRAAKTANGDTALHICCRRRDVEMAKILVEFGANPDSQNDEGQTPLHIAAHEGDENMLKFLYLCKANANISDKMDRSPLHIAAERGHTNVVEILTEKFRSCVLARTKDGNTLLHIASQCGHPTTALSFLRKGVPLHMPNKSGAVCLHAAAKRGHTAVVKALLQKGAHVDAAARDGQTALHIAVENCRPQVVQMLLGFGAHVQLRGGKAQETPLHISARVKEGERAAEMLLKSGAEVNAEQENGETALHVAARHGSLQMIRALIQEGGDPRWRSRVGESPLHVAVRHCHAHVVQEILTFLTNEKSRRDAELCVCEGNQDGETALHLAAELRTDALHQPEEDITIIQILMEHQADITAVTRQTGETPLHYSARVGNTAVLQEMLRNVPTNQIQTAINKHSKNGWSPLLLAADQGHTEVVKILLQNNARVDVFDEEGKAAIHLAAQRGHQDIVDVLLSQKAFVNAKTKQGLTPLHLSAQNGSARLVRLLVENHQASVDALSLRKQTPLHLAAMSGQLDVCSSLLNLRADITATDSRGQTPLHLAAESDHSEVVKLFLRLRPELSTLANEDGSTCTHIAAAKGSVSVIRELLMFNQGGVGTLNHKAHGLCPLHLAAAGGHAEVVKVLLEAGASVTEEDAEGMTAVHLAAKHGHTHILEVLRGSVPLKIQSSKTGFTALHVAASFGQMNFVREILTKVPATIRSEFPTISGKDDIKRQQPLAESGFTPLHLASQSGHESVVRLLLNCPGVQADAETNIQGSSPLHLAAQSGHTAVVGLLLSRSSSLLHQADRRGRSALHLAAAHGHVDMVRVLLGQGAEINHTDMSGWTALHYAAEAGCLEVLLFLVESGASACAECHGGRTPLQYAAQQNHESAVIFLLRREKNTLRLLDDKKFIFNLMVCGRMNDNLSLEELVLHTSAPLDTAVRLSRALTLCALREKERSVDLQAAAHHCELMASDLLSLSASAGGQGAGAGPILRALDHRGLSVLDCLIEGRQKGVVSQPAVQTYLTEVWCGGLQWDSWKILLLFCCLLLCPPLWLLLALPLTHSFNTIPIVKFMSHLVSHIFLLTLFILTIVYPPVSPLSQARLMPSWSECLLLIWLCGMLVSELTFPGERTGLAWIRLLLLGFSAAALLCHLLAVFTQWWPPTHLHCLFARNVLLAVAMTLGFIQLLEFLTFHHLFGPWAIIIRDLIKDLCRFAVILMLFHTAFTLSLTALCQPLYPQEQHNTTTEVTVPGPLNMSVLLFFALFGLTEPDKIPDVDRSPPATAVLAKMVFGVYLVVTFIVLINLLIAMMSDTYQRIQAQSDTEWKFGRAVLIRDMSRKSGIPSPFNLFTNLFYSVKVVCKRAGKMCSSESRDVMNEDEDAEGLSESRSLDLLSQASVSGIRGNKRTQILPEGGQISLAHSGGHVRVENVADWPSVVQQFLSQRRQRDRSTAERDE
Chain of Lytic switch protein BZLF1 (P03206 whole entry): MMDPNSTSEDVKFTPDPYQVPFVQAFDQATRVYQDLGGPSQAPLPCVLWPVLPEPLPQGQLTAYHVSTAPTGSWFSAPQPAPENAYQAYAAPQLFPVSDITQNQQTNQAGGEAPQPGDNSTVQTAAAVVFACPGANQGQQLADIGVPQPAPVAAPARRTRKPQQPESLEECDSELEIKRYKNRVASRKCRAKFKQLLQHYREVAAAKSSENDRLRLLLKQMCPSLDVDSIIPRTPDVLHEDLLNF
Chain of Peroxisome proliferator-activated receptor gamma/Nuclear receptor coactivator 3 (P37231 whole entry): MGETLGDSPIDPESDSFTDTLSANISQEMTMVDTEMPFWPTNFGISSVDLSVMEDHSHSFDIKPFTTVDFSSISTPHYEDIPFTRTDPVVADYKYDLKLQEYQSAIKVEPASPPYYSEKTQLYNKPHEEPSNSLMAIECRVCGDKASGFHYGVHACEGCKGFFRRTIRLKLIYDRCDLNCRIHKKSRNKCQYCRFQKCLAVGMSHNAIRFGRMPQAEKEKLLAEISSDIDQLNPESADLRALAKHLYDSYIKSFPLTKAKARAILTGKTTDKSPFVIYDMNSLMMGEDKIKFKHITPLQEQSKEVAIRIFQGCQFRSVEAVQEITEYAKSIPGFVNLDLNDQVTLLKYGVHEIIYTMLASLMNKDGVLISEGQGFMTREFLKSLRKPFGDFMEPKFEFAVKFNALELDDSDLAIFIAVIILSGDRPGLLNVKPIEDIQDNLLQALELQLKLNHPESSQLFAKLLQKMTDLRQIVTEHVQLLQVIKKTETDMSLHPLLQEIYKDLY
Chain of Peroxisome proliferator-activated receptor gamma/Nuclear receptor coactivator 3 (Q9Y6Q9 whole entry, further chain): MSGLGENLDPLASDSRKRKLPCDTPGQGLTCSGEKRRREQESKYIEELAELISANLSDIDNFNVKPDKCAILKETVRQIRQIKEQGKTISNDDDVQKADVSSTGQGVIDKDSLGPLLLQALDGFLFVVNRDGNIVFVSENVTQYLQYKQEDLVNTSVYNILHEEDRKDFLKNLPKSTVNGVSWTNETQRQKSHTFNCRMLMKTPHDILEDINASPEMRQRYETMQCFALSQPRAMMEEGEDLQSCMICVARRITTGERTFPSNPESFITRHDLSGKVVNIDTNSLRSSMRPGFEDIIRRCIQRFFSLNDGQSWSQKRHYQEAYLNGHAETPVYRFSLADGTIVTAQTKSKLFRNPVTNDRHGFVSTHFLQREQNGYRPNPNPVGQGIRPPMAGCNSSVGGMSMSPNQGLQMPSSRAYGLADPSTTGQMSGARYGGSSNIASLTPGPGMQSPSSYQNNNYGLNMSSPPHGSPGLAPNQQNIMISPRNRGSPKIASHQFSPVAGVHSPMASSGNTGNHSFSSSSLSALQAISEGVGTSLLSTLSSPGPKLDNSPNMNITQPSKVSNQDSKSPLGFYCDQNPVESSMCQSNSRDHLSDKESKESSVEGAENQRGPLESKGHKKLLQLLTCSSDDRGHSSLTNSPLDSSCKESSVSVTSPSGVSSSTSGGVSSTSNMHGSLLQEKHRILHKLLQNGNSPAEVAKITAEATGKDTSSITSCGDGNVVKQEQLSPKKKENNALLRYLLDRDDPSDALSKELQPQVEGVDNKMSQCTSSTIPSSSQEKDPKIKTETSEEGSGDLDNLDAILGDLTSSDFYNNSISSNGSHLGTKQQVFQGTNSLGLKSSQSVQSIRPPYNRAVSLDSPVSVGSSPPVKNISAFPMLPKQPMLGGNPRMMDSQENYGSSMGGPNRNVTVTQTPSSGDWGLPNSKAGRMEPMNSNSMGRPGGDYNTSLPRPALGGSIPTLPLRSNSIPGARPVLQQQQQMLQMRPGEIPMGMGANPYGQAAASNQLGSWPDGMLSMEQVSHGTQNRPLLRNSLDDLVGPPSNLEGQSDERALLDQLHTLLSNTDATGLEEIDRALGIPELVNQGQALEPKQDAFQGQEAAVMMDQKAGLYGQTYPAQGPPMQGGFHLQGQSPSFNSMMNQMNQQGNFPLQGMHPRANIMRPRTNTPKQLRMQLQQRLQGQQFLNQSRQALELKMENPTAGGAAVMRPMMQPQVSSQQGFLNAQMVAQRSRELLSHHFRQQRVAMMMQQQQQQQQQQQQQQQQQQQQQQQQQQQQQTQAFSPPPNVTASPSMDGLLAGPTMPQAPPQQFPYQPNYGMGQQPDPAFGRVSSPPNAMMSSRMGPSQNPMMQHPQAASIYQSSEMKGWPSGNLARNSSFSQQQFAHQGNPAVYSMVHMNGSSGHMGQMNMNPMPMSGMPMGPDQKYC
Chain of Mucolipin-3 (Q8TDD5 whole entry): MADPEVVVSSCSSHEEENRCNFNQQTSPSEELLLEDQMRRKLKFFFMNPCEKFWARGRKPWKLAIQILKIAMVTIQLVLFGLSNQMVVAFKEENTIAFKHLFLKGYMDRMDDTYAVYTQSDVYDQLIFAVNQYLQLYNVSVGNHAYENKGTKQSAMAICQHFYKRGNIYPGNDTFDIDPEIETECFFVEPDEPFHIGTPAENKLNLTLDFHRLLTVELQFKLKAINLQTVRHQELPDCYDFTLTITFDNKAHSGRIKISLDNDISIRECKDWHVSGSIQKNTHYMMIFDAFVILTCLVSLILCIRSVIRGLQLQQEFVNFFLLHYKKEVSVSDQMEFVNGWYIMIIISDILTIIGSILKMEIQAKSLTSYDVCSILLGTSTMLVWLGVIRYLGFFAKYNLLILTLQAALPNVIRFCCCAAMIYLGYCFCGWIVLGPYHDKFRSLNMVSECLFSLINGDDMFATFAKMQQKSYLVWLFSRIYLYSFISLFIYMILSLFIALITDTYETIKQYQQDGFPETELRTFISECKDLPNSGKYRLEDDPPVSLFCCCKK

Consider `O=C(NC(=S)NNC(=O)c1cccs1)c1ccc(Br)o1`, for which the EC50 is 5.99 µM (active) in experiment [1], 5.44 µM (active) in experiment [2], 5.31 µM (active) in [3] and 12.2 µM (active) in experiment [5]. The IC50 in experiment [4] was 28.8 µM (active).
As for `O=C(O)CCn1cc(/C=C/C(=O)c2ccc(Cl)cc2)c(-c2ccc(Br)cc2)n1`, in experiment [6], the IC50 is 22.7 µM (active). Moreover, the EC50 in experiment [7] was 15.9 µM (active); in [8] it was 15.5 µM (active). The AC50 in experiment [9] is 5.62 µM (active).
With `Cc1cc(C(=O)CN2C(=O)CCC2=O)c(C)n1Cc1ccc2c(c1)OCO2`, in experiment [10], the EC50 is > 30 µM (not active).
With `COc1ccc(CNc2nc(NCc3ccc(OC)cc3)n(C(C)=O)n2)cc1`, the IC50 in experiment [11] is given as 37.8 µM (not active); in experiment [12] it was > 111 µM (not active).
Take `Clc1ccc(CSc2cc3c(nn2)-c2ccccc2CC3)cc1Cl`: the IC50 was 5.27 µM (active) in experiment [13] and 6.88 µM (active) in experiment [14].
Turning to `O=C(NCCCCCCNC(=O)c1ccc(Br)s1)c1ccc(Br)s1`, the EC50 in experiment [15] is reported as 12.8 µM (not active).
Turning to `Cc1ccc(C)n1-c1ccc(Cl)cc1C(=O)O`, the EC50 in experiment [16] was 0.94 µM (active).
On to `Brc1ccc(-c2csc(N/N=C/c3ccco3)n2)cc1`, for which the EC50 in [17], in experiment [18] and in [19] was > 79.4 µM (not active) in each case.
